Read-outs that look alike come from different tables or passages of the source.
Experiments:
Cyp1a1 [1] = assay: HaCaT cells, CYP1A1 mRNA by Reverse Transcriptase Real-Time PCR; conditions: for induction of CYP1A1 mRNA: 100 nM; for Cyp1a1 induction, time dependence: 24h compared to 3 and 6h
Cyp1b1 = assay: HaCaT cells, CYP1B1 mRNA by Reverse Transcriptase Real-Time PCR; assay type: cell-based, human; conditions: 1 μM, 24h
AhR [2] = molecular target: T1, AhR (Homo sapiens, UniProt P35869); assay: cell-based
T1 sequence (P35869 11-848): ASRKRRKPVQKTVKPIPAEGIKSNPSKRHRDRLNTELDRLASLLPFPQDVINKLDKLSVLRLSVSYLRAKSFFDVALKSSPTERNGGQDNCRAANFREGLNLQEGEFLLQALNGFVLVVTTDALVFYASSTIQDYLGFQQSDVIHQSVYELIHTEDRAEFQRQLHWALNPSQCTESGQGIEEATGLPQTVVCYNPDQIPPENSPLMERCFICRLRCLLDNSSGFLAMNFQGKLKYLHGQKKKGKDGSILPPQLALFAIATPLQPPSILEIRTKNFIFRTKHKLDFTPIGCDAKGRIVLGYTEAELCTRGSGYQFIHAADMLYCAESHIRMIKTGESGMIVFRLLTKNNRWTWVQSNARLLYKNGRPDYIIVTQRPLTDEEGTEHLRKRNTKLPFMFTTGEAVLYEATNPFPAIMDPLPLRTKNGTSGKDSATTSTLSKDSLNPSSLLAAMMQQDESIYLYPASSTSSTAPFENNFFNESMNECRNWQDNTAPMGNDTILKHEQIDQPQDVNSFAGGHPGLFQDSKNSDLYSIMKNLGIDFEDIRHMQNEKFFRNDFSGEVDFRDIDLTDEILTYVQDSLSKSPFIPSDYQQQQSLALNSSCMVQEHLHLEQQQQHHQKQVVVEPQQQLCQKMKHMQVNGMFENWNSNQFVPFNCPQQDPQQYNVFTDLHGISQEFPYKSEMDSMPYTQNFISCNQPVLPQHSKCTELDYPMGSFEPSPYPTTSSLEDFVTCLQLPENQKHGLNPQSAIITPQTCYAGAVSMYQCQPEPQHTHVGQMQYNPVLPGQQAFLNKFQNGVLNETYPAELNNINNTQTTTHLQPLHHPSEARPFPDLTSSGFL

Cyp1a1 [3] = conditions: human
AhR [4] = molecular target: T1, AhR
[5] = 6 hours of incubation, HG2L7.5c1 cells

O=Cc1c2[nH]c3ccccc3c2cc2[nH]c3ccccc3c12 [FICZ, 6-formylindolo[3,2-b]carbazole]
induction of CYP1A1 mRNA (Cyp1a1 [1]; 24h): Statistically significant induction
Cyp1a1 induction compared with ICZ or indirubin (Cyp1a1 [1]; 1 μM, 24h): significantly more potent
Cyp1a1 induction, time dependence (Cyp1a1 [1]): higher at 24h
Cyp1b1 induction compared with ICZ or indirubin (Cyp1b1): significantly more potent

Clc1cc2c(cc1Cl)Oc1cc(Cl)c(Cl)cc1O2 [TCDD, 2,3,7,8-tetrachlorodibenzo-p-dioxin, reference compound]
EC50 (AhR [2]): 0.523 nM

O=C1Nc2ccccc2/C1=C1/Nc2ccccc2C1=O [indirubin]
Cyp1a1 induction, time dependence (Cyp1a1 [3]): higher at 24h

O=Cc1c(Cc2c[nH]c3ccccc23)[nH]c2ccccc12 [malassezin]
fold less potent than TCDD (AhR [4]; [5]): 20 fold

O=C1c2ccccc2-n2c1nc1ccccc1c2=O [tryptanthrin]
fold less potent than TCDD (AhR [4]): 200 fold
EC50 (AhR [2]): 107 nM

indolo[3,2-b]carbazole [ICZ]
induction of CYP1A1 mRNA (Cyp1a1 [1]; 24h): Statistically significant induction
Cyp1a1 induction, time dependence (Cyp1a1 [1]): higher at 24h
potency relative to the prototypical AhR agonist TCDD (AhR [4]; [5]): equipotent
